Assay results from patent US20120156307A1, “MEDICAL USES OF NANOCLUSTERED WATER” (priority 2010, published 2012).
Like-named read-outs stand apart in the source and are kept apart here.

Key:
[1] = system: in vitro reconstituted human 3D skin with a corneum layer; assay: Keratolytic effect, MTT assay on reconstituted human 3D skin; type: cell-based
Procedure: The assay was carried out on a three-dimensional reconstituted human skin model, composed of human epidermal keratinocytes that have been proliferating and differentiating in vitro in peculiar conditions in order to build up a well-differentiated stratum corneum. […] When the damage of the corneum layer is stronger, as it happens with keratolytic agents, the cytotoxic effects of the germinative layer are faster to develop. […] Thirty μL of each substance have been applied to the cell culture and incubation at 37° C. was performed for 15 and 120 minutes respectively.

[2] = system: in vitro reconstituted human 3D skin with a corneum layer; settings: 1% SLS, 10% Glycolic acid, cited from earlier work
[3] = system: peripheral blood mononuclear cells (PBMC); assay: In vitro inhibition of PBMC proliferation; type: cell-based

Compound: CCCCCCCCCCCCOS(=O)(=O)[O-].[Na+] [SLS]
- cell death (cytotoxic effect) ([1]; after 2 hours, 1% SLS): 27.69%
- cell death, as generally stated for the reference agents ([2]; after 15'): does not cause any cell death
- cell death, as generally stated for the reference agents ([2]; after 2 h): about 30%

Compound: O=C(O)CO [glycolic acid]
- cell death ([1]; at 15', 10% glycolic acid): 45.86%
- cell death, as generally stated for the reference agents ([2]; after 15'): 50%
- cell death, as generally stated for the reference agents ([2]; after 2 h): 90%

Compound: C[C@H]1C[C@H]2[C@@H]3CCC4=CC(=O)C=C[C@]4(C)[C@@]3(F)[C@@H](O)C[C@]2(C)[C@@]1(O)C(=O)CO [Betamethasone, betamethasone]
- inhibition at 0.01 µM ([3]; Batch 1, 10 nM): 87.7%
- inhibition at 0.01 µM ([3]; Batch 2, 10 nM): 85.7%
- inhibition at 0.01 µM ([3]; Batch 3, 10 nM): 79.4%
- inhibition at 0.01 µM ([3]; Batch 4, 10 nM): 88.5%
- inhibition at 0.01 µM ([3]; Mean, 10 nM): 85.3%
